Publication PMC8815882, “Screening the pandemic response box identified benzimidazole carbamates, Olorofim and ravuconazole as promising drug candidates for the treatment of eumycetoma” (PLoS Neglected Tropical Diseases, 2022)
≈ marks a conversion by molar mass, not a printed value. Where two headings read alike, the source gives them in different places.

How the values were obtained:
[1] = system: M. mycetomatis genome strain MM55; assay: CLSI M38-A2 based in vitro susceptibility screening (XTT or resazurin), growth at fixed concentration; type: cell-based, Madurella mycetomatis; details: Madurella mycetomatis; for Percent fungal survival at 100 µM: replicate 2, M. mycetomatis MM55, read-out: Percentage survival at 100um, 100 uM A (second replicate column)
M. mycetomatis MM55 = assay: IC50 determination, 2-fold dilution series 16 to 0.03125 μM; type: cell-based, Madurella mycetomatis
[2] = system: ten different M. mycetomatis isolates; assay: MIC / MIC50 determination (XTT) in ten M. mycetomatis isolates; type: cell-based, Madurella mycetomatis; details: for MIC50 / MIC: Madurella mycetomatis
[3] = system: M. mycetomatis isolate MM55; assay: M. mycetomatis grain infection model in G. mellonella larvae, survival; type: in vivo, Galleria mellonella; design: In vivo efficacy, Larvae survival %: concentration or dose not given beside the values; details: for In vivo efficacy, Enhanced survival compared to control? / In vivo efficacy, Larvae survival %: G. mellonella larvae infected with M. mycetomatis
[4] = 25 uM, mean of three, M. mycetomatis MM55, read-out: Percentage survival at 25um, 25 uM mean
[5] = 25 uM, replicate A, M. mycetomatis MM55, read-out: Percentage survival at 25um, 25 um A
[6] = 25 uM, replicate B, M. mycetomatis MM55, read-out: Percentage survival at 25um, 25 uM B
[7] = 25 uM, replicate C, M. mycetomatis MM55, read-out: Percentage survival at 25um, 25 uM C
[8] = mean of three, M. mycetomatis MM55, read-out: Percentage survival at 100um, 100 uM mean
[9] = replicate 1, M. mycetomatis MM55, read-out: Percentage survival at 100um, 100 uM A (first replicate column)
[10] = replicate 3, M. mycetomatis MM55, read-out: Percentage survival at 100um, 100 uM A (third replicate column)
[11] = Madurella mycetomatis, MM55, mean of replicates, read-out: IC90 mean
[12] = Madurella mycetomatis, MM55, replicate 1, read-out: IC90 1 um
[13] = Madurella mycetomatis, MM55, replicate 2, read-out: IC90 2 um
[14] = Madurella mycetomatis, MM55, replicate 3, read-out: IC90 3 um
[15] = over the tested M. mycetomatis isolates, read-out: MIC50 mean
[16] = isolate CBS247.48, read-out: MIC CBS247.48
[17] = isolate MM55, read-out: MIC MM55
[18] = isolate ParijsAl1, read-out: MIC ParijsAl1
[19] = isolate Peru72012, read-out: MIC Peru72012
[20] = Madurella mycetomatis, MM55, Table 2, M. mycetomatis MM55, read-out: IC50
[21] = Madurella mycetomatis, MM55, mean of replicates, read-out: IC50 mean
[22] = Madurella mycetomatis, MM55, replicate 1, read-out: IC50 1 um
[23] = Madurella mycetomatis, MM55, replicate 2, read-out: IC50 2 um
[24] = Madurella mycetomatis, MM55, replicate 3, read-out: IC50 3 um
[25] = median MIC over ten M. mycetomatis isolates, no asterisk, read-out: MIC50
[26] = isolate MM14, read-out: MIC MM14
[27] = isolate MM45, read-out: MIC MM45

Compound `Clc1ccc(COC(Cn2ccnc2)c2ccc(Cl)cc2Cl)c(Cl)c1` (stereo not shown) [MMV002722] has an activity at 25 µM [1, 4] of 1.83%, an activity at 25 µM [1, 5] of 0.653% and an activity at 25 µM [1, 6] of 1.37%. The activity at 25 µM [1, 7] was 3.48%, the activity at 100 µM [1, 8] was 8.62% and the activity at 100 µM [1, 9] was 1.56%. The Percent fungal survival at 100 µM [1] was 6.95%, the activity at 100 µM [1, 10] was 17.4% and the “Drug static or cidal” value (M. mycetomatis MM55; M. mycetomatis) was “Cidal”. It also gave an IC90 (M. mycetomatis MM55; [11]) of 1230 nM, an IC90 (M. mycetomatis MM55; [12]) of 750 nM and an IC90 (M. mycetomatis MM55; [13]) of 2600 nM. For the same compound, the IC90 (M. mycetomatis MM55; [14]) was 340 nM, the MIC50 [2, 15] was 0.125 µM (≈ 0.052 µg/mL) and the MIC [2, 16] was 0.125 µM (≈ 0.052 µg/mL). It also gave an MIC [2, 17] of 0.25 µM (≈ 0.104 µg/mL), an MIC ([2]; isolate P1, read-out: MIC P1) of 0.06 µM (≈ 0.025 µg/mL) and an MIC [2, 18] greater than 0.03 µM. The MIC [2, 19] was 0.06 µM (≈ 0.025 µg/mL), the MIC ([2]; isolate So1, read-out: MIC So1) was 0.125 µM (≈ 0.052 µg/mL) and the MIC ([2]; isolate i1, read-out: MIC i1) was greater than 0.03 µM. For the same compound, the MIC ([2]; isolate i11, read-out: MIC i11) was 0.5 µM (≈ 0.208 µg/mL), the “In vivo efficacy, Enhanced survival compared to control?” value (shortened to “In vivo efficacy … compared to control?”) [3] was “no” and the “In vivo efficacy, Larvae survival %” value [3] was 8.9%.

For `N#C/C(=C1/SC[C@@H](c2ccc(Cl)cc2Cl)S1)n1ccnc1` [MMV1782224, Luliconazole, reference compound], the activity at 25 µM [1, 4] was 1.75%, the activity at 25 µM [1, 5] was -0.617% and the activity at 25 µM [1, 6] was 1.37%. It also gave an activity at 25 µM [1, 7] of 4.51%, an activity at 100 µM [1, 8] of 6.85% and an activity at 100 µM [1, 9] of -0.151%. For the same compound, the Percent fungal survival at 100 µM [1] was 8.79%, the activity at 100 µM [1, 10] was 11.9% and the “Drug static or cidal” value (M. mycetomatis MM55; M. mycetomatis) was “Cidal”. For the same compound, the IC50 (M. mycetomatis MM55; [20]) was less than 20 nM, the IC50 (M. mycetomatis MM55; [21]) was less than 98 nM and the IC90 (M. mycetomatis MM55; [11]) was less than 98 nM. It also gave an IC50 (M. mycetomatis MM55; [22]) of less than 98 nM, an IC90 (M. mycetomatis MM55; [12]) of less than 98 nM and an IC50 (M. mycetomatis MM55; [23]) of less than 98 nM. The IC90 (M. mycetomatis MM55; [13]) was less than 98 nM, the IC50 (M. mycetomatis MM55; [24]) was less than 98 nM and the IC90 (M. mycetomatis MM55; [14]) was less than 98 nM. For the same compound, the IC50 (M. mycetomatis MM55; Table 2, M. mycetomatis MM55, read-out: IC50) was less than 30 nM, the MIC50 [2, 25] was less than 0.03 µM and the MIC50 [2, 15] was less than 0.0312 µM. For the same compound, the MIC [2, 16] was less than 0.0312 µM, the MIC [2, 26] was less than 0.0312 µM and the MIC [2, 27] was less than 0.0312 µM. For the same compound, the MIC [2, 17] was less than 0.0312 µM, the MIC ([2]; isolate P1, read-out: MIC P1) was less than 0.0312 µM and the MIC [2, 18] was less than 0.0312 µM. The MIC [2, 19] was less than 0.0312 µM, the MIC ([2]; isolate So1, read-out: MIC So1) was less than 0.0312 µM and the MIC ([2]; isolate i1, read-out: MIC i1) was less than 0.0312 µM. For the same compound, the MIC ([2]; isolate i11, read-out: MIC i11) was less than 0.0312 µM, the “MIC50 (μM)” value ([2]; median MIC over ten M. mycetomatis isolates, no asterisk) was <0.03 (≦0.03) μM and the “Effect on larvae survival Day 4 (words)” value ([3]; 20 μM per larvae, vs infected control, day four) was “prolonged larvae survival”. For the same compound, the “In vivo efficacy … compared to control?” value [3] was “no” and the “In vivo efficacy, Larvae survival %” value [3] was 11.1%.

`O=C(/C(=C/c1ccc(Cl)cc1Cl)n1ccnc1)c1ccc(Cl)cc1` [MMV1634491] was tested, and the activity at 25 µM [1, 4] was 0.641%, the activity at 25 µM [1, 5] was -1.32% and the activity at 25 µM [1, 6] was 0.287%. The activity at 25 µM [1, 7] was 2.96%, the activity at 100 µM [1, 8] was 7.66% and the activity at 100 µM [1, 9] was -1.73%. For the same compound, the Percent fungal survival at 100 µM [1] was 4.59%, the activity at 100 µM [1, 10] was 20.1% and the “Drug static or cidal” value (M. mycetomatis MM55; M. mycetomatis) was “Static”. The IC50 (M. mycetomatis MM55; [20]) was 2810 nM, the IC50 (M. mycetomatis MM55; [21]) was 2810 nM and the IC90 (M. mycetomatis MM55; [11]) was 4700 nM. It also gave an IC50 (M. mycetomatis MM55; [22]) of 2220 nM, an IC90 (M. mycetomatis MM55; [12]) of 4360 nM and an IC50 (M. mycetomatis MM55; [23]) of 2880 nM. For the same compound, the IC90 (M. mycetomatis MM55; [13]) was 4780 nM, the IC50 (M. mycetomatis MM55; [24]) was 3340 nM and the IC90 (M. mycetomatis MM55; [14]) was 4950 nM. The MIC50 [2, 25] was 1 µM (≈ 0.378 µg/mL), the MIC50 [2, 15] was 4 µM (≈ 1.51 µg/mL) and the MIC [2, 16] was 4 µM (≈ 1.51 µg/mL). For the same compound, the MIC [2, 26] was 4 µM (≈ 1.51 µg/mL), the MIC [2, 27] was 2 µM (≈ 0.755 µg/mL) and the MIC [2, 17] was 4 µM (≈ 1.51 µg/mL). For the same compound, the MIC ([2]; isolate P1, read-out: MIC P1) was 4 µM (≈ 1.51 µg/mL), the MIC [2, 18] was 4 µM (≈ 1.51 µg/mL) and the MIC [2, 19] was 4 µM (≈ 1.51 µg/mL). The MIC ([2]; isolate So1, read-out: MIC So1) was 4 µM (≈ 1.51 µg/mL), the MIC ([2]; isolate i1, read-out: MIC i1) was 1 µM (≈ 0.378 µg/mL) and the MIC ([2]; isolate i11, read-out: MIC i11) was 4 µM (≈ 1.51 µg/mL). For the same compound, the “In vivo efficacy … compared to control?” value [3] was “no” and the “In vivo efficacy, Larvae survival %” value [3] was 8.9%.

For `Nc1nc(F)nc2c1ncn2[C@@H]1O[C@H](CO)[C@@H](O)[C@@H]1O` [MMV637413, Fludarabine, reference compound], the activity at 25 µM ([1]; 25 uM, replicate A, MM55, read-out: Percentage survival at 25um, 25 um A) was 3.41%, the activity at 100 µM ([1]; mean of replicates, MM55, read-out: Percentage survival at 100um, 100 uM mean) was 3.82% and the activity at 100 µM ([1]; replicate 1, MM55, read-out: Percentage survival at 100um, 100 uM A) was 1.86%. For the same compound, the activity at 100 µM ([1]; replicate 2, MM55, read-out: Percentage survival at 100um, 100 uM A) was 1.98%, the activity at 100 µM ([1]; replicate 3, MM55, read-out: Percentage survival at 100um, 100 uM A) was 7.64% and the activity at 25 µM ([1]; read-out: Percentage survival at 25um, 25 uM B) was -4.01%. The activity at 25 µM ([1]; read-out: Percentage survival at 25um, 25 uM C) was 6.32%, the activity at 25 µM ([1]; read-out: Percentage survival at 25um, 25 uM mean) was 1.91% and the “Drug static or cidal” value (M. mycetomatis MM55) was “Static”. It also gave an IC50 (M. mycetomatis MM55; [21]) of 1630 nM, an IC90 (M. mycetomatis MM55; Madurella mycetomatis, MM55, IC90, mean of replicates, read-out: IC90 mean) of 8890 nM and an IC90 (M. mycetomatis MM55; Madurella mycetomatis, MM55, IC90, replicate 1, read-out: IC90 1 um) of 20600 nM. For the same compound, the IC90 (M. mycetomatis MM55; Madurella mycetomatis, MM55, IC90, replicate 2, read-out: IC90 2 um) was 1280 nM, the IC90 (M. mycetomatis MM55; Madurella mycetomatis, MM55, IC90, replicate 3, read-out: IC90 3 um) was 4800 nM and the IC50 (M. mycetomatis MM55; [22]) was 1800 nM. It also gave an IC50 (M. mycetomatis MM55; [23]) of 680 nM, an IC50 (M. mycetomatis MM55; [24]) of 2400 nM and an IC50 (M. mycetomatis MM55; Madurella mycetomatis, Table 2, M. mycetomatis MM55, read-out: IC50) of 1630 nM. It also gave an MIC50 [2, 25] of 16 µM (≈ 4.56 µg/mL), an MIC ([2]; M. mycetomatis isolate CBS247.48, read-out: MIC CBS247.48) of 16 µM (≈ 4.56 µg/mL) and an MIC ([2]; M. mycetomatis isolate MM14, read-out: MIC MM14) of 16 µM (≈ 4.56 µg/mL). The MIC ([2]; M. mycetomatis isolate MM45, read-out: MIC MM45) was greater than 16 µM, the MIC ([2]; M. mycetomatis isolate MM55, read-out: MIC MM55) was 16 µM (≈ 4.56 µg/mL) and the MIC ([2]; M. mycetomatis isolate P1, read-out: MIC P1) was greater than 16 µM. For the same compound, the MIC ([2]; M. mycetomatis isolate ParijsAl1, read-out: MIC ParijsAl1) was greater than 16 µM, the MIC ([2]; M. mycetomatis isolate Peru72012, read-out: MIC Peru72012) was greater than 16 µM and the MIC ([2]; M. mycetomatis isolate So1, read-out: MIC So1) was 16 µM (≈ 4.56 µg/mL). It also gave an MIC ([2]; M. mycetomatis isolate i1, read-out: MIC i1) greater than 16 µM, an MIC ([2]; M. mycetomatis isolate i11, read-out: MIC i11) of 16 µM (≈ 4.56 µg/mL) and an MIC50 ([2]; over ten M. mycetomatis isolates, read-out: MIC50 mean) of 16 µM (≈ 4.56 µg/mL).
